Key:
[1] = biological target: T1, GyrA^S91F/D95G N. gonorrhoeae gyrase (Neisseria gonorrhoeae, UniProt P22118+P48371, D95G/S91F); assay: Gyrase-catalyzed DNA supercoiling, GyrA S91F/D95G gyrase; format: biochemical; conditions: ± standard error of the mean, read-out: IC50, inhibition of DNA supercoiling
T1 construct: His-tag; purchased GenScript

WT N. gonorrhoeae gyrase = WT N. gonorrhoeae gyrase (Neisseria gonorrhoeae, UniProt P22118+P48371); assay: Gyrase-mediated DNA cleavage, WT gyrase; conditions: GyrA WT; induced by 8-methyl-2,4-quinazolinedione
[2] = biological target: T2, ParC^E91G N. gonorrhoeae topoisomerase IV (Neisseria gonorrhoeae, UniProt P48374, E91G); assay: Topoisomerase IV-catalyzed DNA decatenation, ParC E91G; format: biochemical
T2 sequence (P48374 1-768 E91G): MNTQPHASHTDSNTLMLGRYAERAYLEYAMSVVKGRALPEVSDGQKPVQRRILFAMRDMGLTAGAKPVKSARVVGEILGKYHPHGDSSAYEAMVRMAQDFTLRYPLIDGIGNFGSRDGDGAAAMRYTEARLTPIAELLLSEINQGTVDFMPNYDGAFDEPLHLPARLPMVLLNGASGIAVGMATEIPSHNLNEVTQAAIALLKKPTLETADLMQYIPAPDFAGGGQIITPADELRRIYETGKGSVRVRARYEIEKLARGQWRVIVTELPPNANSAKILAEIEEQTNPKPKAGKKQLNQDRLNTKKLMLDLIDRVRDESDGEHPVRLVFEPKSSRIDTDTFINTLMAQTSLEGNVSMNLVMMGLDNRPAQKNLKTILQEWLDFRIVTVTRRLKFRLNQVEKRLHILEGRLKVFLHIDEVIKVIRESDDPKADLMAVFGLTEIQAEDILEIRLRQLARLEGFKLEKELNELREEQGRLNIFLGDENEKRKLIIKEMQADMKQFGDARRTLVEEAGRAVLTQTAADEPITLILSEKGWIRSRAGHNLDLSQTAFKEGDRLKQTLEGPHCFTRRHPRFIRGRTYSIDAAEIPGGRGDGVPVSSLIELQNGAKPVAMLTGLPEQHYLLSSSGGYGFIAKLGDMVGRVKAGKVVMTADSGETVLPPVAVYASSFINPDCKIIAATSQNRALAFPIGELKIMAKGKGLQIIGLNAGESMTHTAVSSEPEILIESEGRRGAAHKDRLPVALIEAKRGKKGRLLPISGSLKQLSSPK

[3] = biological target: WT N. gonorrhoeae topoisomerase IV (Neisseria gonorrhoeae, UniProt P48374); assay: Topoisomerase IV-catalyzed DNA decatenation, WT; format: biochemical
Description: DNA decatenation assays were based on previously published protocols by Anderson et al.[79] and Aldred et al.[30] Assays contained 10 nM WT, 20 nM ParC^S87N, 35 nM ParC^E91G, or 35 nM ParC^S87N/E91GN. gonorrhoeae topoisomerase IV, 5 nM kDNA, and 1 mM ATP in 20 μL of 40 mM HEPES-KOH (pH 7.6), 25 mM NaCl, 100 mM KGlu, and 10 mM Mg(OAc)2. Assay mixtures were incubated at 37 °C for 10 min with WT, 15 min with ParC^S87N, and 30 min with ParC^E91G and ParC^S87N/E91GN. gonorrhoeae topoisomerase IV, which represents the minimum time required to completely decatenate the kDNA in the absence of a drug. Reactions were stopped, subjected to electrophoresis, and visualized as described for gyrase-catalyzed DNA supercoiling.

[4] = biological target: T3, ParC^S87N/E91G N. gonorrhoeae topoisomerase IV (Neisseria gonorrhoeae, UniProt P48374, E91G/S87N); assay: Topoisomerase IV-catalyzed DNA decatenation, ParC S87N/E91G; format: biochemical
T3 sequence (P48374 1-768 S87N/E91G): T2 sequence (P48374 1-768 E91G)

[5] = biological target: T4, ParC^S87N N. gonorrhoeae topoisomerase IV (Neisseria gonorrhoeae, UniProt P48374, S87N); assay: Topoisomerase IV-catalyzed DNA decatenation, ParC S87N; format: biochemical
T4 sequence (P48374 1-768 S87N): T2 sequence (P48374 1-768 E91G)

T1 sequence (P48371 whole entry, looked up, stated change not applied): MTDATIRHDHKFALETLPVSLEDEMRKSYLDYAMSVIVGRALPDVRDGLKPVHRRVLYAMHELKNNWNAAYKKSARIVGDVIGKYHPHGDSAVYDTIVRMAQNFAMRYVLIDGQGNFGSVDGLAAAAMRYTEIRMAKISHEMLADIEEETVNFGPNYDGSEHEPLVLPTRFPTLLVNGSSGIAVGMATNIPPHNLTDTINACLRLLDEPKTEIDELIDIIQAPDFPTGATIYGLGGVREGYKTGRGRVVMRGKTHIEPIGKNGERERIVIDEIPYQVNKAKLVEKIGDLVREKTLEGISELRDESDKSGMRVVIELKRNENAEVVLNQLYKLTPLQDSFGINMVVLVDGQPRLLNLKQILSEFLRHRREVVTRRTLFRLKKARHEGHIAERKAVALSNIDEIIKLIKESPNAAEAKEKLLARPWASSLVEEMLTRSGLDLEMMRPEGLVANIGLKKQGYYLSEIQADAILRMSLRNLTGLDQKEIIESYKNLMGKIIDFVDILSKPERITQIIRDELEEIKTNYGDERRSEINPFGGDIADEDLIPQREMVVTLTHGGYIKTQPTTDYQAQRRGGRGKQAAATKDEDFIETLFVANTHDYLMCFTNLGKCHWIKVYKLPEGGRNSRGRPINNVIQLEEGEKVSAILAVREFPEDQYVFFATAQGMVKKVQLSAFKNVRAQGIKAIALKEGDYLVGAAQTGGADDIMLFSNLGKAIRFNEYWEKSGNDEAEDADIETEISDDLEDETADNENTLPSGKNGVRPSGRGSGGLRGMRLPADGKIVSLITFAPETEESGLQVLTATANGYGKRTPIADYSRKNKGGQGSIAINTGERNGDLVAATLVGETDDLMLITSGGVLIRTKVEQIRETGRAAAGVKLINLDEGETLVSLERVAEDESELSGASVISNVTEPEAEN
T1 sequence (P22118 whole entry, stated change not applied): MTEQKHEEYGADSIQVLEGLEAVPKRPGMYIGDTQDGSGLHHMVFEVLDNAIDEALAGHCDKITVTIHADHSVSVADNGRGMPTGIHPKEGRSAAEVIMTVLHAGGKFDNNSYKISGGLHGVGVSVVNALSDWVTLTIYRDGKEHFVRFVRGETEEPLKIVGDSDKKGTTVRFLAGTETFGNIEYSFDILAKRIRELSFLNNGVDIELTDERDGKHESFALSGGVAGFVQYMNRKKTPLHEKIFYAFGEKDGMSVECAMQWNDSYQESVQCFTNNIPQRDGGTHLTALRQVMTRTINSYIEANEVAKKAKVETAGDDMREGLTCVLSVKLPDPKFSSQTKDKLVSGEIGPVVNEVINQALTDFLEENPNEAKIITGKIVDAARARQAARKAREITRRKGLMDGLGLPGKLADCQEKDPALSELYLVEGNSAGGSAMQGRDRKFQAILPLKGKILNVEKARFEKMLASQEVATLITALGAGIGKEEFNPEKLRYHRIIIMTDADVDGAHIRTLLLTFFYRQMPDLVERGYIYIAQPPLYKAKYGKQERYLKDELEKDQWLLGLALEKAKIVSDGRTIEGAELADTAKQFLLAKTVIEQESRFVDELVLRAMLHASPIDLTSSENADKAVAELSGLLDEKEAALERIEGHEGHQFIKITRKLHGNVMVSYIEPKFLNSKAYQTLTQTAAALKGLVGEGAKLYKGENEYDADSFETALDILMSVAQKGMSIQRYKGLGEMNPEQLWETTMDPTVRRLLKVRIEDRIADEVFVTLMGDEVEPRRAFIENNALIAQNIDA
Sequence of WT N. gonorrhoeae gyrase (P48371 whole entry): as the sequence (P48371 whole entry, looked up, stated change not applied) above
Sequence of WT N. gonorrhoeae gyrase (P22118 whole entry): as the sequence (P22118 whole entry, stated change not applied) above

| SMILES | IC50 [1] | Max % DSB (WT N. gonorrhoeae gyrase) | IC50 [2] | IC50 [3] | IC50 [4] | IC50 [5] |
| --- | --- | --- | --- | --- | --- | --- |
| Cc1c(N2CC[C@@H](CN)C2)c(F)cc2c(=O)n(N)c(=O)n(C3CC3)c12 [8-Me-2,4-QD, 3-Amino-7-[(3S)-3-(aminomethyl)-1-pyrrolidinyl]-1-cyclopropyl-6-fluoro-8-methyl-2,4(1H,3H)-quinazolinedione] | 19.7 µM | 28.9% |  |  |  |  |
| O=C(O)c1cn(C2CC2)c2cc(N3CCNCC3)c(F)cc2c1=O [Ciprofloxacin] |  |  | 301 ± 23.8 µM | 13.7 µM | > 500 µM | 16.4 µM |
